In one experiment the target is Histamine H1 receptor (Cavia porcellus, UniProt P31389).
Experiment [1] addresses T1, 5-hydroxytryptamine receptor 2C (Sus scrofa, UniProt K7GSR7).
T1 sequence (K7GSR7 whole entry): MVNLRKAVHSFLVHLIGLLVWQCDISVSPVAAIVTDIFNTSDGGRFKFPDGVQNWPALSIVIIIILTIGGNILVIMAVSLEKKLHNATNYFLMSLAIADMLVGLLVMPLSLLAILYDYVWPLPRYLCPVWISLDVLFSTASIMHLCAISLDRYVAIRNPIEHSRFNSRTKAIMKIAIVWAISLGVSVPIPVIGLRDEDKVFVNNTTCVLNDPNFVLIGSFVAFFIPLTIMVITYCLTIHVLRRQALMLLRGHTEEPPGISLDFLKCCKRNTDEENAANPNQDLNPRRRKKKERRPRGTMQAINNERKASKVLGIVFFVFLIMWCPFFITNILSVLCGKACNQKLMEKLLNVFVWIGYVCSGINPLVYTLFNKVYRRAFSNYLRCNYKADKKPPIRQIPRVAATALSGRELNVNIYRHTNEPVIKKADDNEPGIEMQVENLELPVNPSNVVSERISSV

The target in experiment [2] is T2, Alpha-1A adrenergic receptor (Homo sapiens, UniProt P35348).
T2 sequence (P35348 whole entry): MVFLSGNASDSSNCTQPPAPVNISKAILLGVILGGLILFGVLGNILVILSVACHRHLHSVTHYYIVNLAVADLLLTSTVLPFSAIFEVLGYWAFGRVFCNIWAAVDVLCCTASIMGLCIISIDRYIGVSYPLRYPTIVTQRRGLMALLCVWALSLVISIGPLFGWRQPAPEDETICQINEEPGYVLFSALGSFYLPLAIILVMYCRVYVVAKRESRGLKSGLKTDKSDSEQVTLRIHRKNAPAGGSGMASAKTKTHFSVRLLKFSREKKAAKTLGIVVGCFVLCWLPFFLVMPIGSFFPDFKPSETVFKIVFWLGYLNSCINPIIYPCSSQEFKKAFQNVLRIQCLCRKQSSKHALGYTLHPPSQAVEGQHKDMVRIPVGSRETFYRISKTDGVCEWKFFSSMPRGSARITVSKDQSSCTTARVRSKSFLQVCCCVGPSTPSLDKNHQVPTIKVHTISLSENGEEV

Where “and” joins values, the source holds several entries; their conditions need not be identical. Equal entries are not always repeated. Structures can show the parent of a compound that is named as a salt. Where only a bound is given, the exact number is not on record here.

Chain of Histamine H1 receptor (P31389 whole entry): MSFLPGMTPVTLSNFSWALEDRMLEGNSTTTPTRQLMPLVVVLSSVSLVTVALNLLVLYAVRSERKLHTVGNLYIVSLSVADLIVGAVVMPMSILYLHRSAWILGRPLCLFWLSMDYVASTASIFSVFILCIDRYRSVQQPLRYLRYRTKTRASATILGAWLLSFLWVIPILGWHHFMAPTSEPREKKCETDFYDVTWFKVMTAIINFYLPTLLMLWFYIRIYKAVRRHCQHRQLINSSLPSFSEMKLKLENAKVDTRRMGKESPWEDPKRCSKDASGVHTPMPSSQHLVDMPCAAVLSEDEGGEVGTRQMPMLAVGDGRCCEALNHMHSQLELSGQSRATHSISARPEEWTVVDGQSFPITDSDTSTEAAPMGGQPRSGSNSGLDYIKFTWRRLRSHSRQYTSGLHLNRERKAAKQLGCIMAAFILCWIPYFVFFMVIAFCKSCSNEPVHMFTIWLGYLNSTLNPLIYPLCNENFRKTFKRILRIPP

As to `CN[C@@H]1CC[C@@H](c2ccc(Cl)c(Cl)c2)c2ccccc21` [[4-(3,4-Dichloro-phenyl)-1,2,3,4-tetrahydro-naphthalen-1-yl]-methyl-amine], the values for the Ki (on Histamine H1 receptor; in experiment [1]; in experiment [2]) were 6.58 µM, 2.3 µM and 0.188 µM, respectively.
Consider `COCCCC/C(=N\OCCN)c1ccc(C(F)(F)F)cc1` [(1E)-5-methoxy-1-[4-(trifluoromethyl)phenyl]pentan-1-one O-(2-aminoethyl)oxime], for which the values for the inhibition constant Ki (on Histamine H1 receptor; in experiment [1]) were > 10 µM and 5.79 µM, respectively.
The corresponding values for `CN(C)CCC[C@]1(c2ccc(F)cc2)OCc2cc(C#N)ccc21` [R-citalopram] are 0.181 µM and 1.8 µM.
Take `CNCC[C@@H](Oc1ccc(C(F)(F)F)cc1)c1ccccc1` [Fluoxetine-R-(-)]: the affinity on Histamine H1 receptor corresponds to a Ki of 0.812 µM.
Same read-out and setting: next, `CNCC[C@@H](Oc1ccc(C(F)(F)F)cc1)c1ccccc1` [Prozac]: 1.55 µM.
With `CN(C)CCCC1(c2ccc(F)cc2)OCc2cc(C#N)ccc21` (stereo not drawn) [CITALOPRAM HYDROBROMIDE], the Ki on Histamine H1 receptor was 0.283 µM and 1.97 µM; in experiment [1], 2.05 µM and 2.53 µM.
On to `Fc1ccc([C@@H]2CCNC[C@H]2COc2ccc3c(c2)OCO3)cc1` [PAROXETINE], for which the figures for the Ki (at Histamine H1 receptor; in experiment [1]) were > 10 µM and 9.03 µM, respectively.

Values taken from BindingDB's records for PubMed 12232544 (Emory University, 2002).
